Reference: ChEMBL document CHEMBL1201862, “PubChem BioAssay data set” (2004)
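Briefly, cells in 96-well plates were exposed to five compound concentrations for 48 h, and endpoints were estimated by linear interpolation. The concentration for 50% growth inhibition is given as GI50.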 Active and inactive are the calls of the source. Rule as the data show it: active = GI50 up to about 1.1 µM and inactive = higher.

Experiments:
Experiment in all cases: growth of human tumour cells (NCI), 48 h
ACHN = test system: ACHN
CAKI-1 = test system: CAKI-1
SNB-75 = test system: SNB-75
NCI-H522 = test system: NCI-H522
RPMI-8226 = test system: RPMI-8226
HL-60 = test system: HL-60
HCC 2998 = test system: HCC 2998
OVCAR-5 = test system: OVCAR-5
SW-620 = test system: SW-620
HCT-116 = test system: HCT-116
SK-MEL-2 = test system: SK-MEL-2
U-251 = test system: U-251
Malme-3M = test system: Malme-3M
OVCAR-4 = test system: OVCAR-4
HCT-15 = test system: HCT-15
SR = test system: SR

Measured: GI50

COc1cccc2c1C1(O)C2CCCC12OCCCO2 (centres undefined)
inactive: ACHN > 100 µM | CAKI-1 > 100 µM | SNB-75 > 100 µM | NCI-H522 > 100 µM | RPMI-8226 > 100 µM | HL-60 > 100 µM | HCC 2998 > 100 µM | OVCAR-5 > 100 µM | SW-620 > 100 µM | HCT-116 > 100 µM | SK-MEL-2 > 100 µM | U-251 > 100 µM | Malme-3M > 100 µM | OVCAR-4 > 100 µM
> 100 µM: HCT-15

O=c1nc(-c2ccccc2)c2c3c(cccn13)CCC2
> 100 µM: HCT-15
inactive: ACHN > 100 µM | CAKI-1 > 100 µM | SNB-75 21.8 µM | NCI-H522 > 100 µM | RPMI-8226 > 100 µM | HL-60 > 100 µM | HCC 2998 > 100 µM | OVCAR-5 > 100 µM | SW-620 > 100 µM | SR > 100 µM | HCT-116 > 100 µM | SK-MEL-2 > 100 µM | U-251 > 100 µM | Malme-3M > 100 µM | OVCAR-4 > 100 µM

Cc1cccc(/C=N/N=C(\N)NO)n1
inactive: ACHN 27.3 µM | CAKI-1 20.8 µM | SNB-75 20.5 µM | NCI-H522 37.8 µM | HL-60 32.4 µM | HCC 2998 83.8 µM | SW-620 74.5 µM | SR 42.4 µM | HCT-116 > 100 µM | SK-MEL-2 50 µM | U-251 78.7 µM | Malme-3M > 100 µM | OVCAR-4 28.2 µM
> 10 µM: HCT-15

Nc1ccccc1/C(O)=C1/CCOC1=O
inactive: ACHN > 100 µM | CAKI-1 > 100 µM | SNB-75 > 100 µM | NCI-H522 > 100 µM | RPMI-8226 > 100 µM | HL-60 > 100 µM | OVCAR-5 > 100 µM | SW-620 > 100 µM | SR > 100 µM | HCT-116 > 100 µM | SK-MEL-2 > 100 µM | U-251 > 100 µM | Malme-3M > 100 µM | OVCAR-4 > 100 µM

O=[N+]([O-])C=C1c2ccccc2-c2ccccc21
inactive: ACHN 16.9 µM | CAKI-1 11.4 µM | SNB-75 25.4 µM | NCI-H522 3.76 µM | RPMI-8226 2.18 µM | HL-60 4.01 µM | HCC 2998 16.8 µM | OVCAR-5 17.4 µM | SW-620 16.4 µM | SR 4.65 µM | HCT-116 4.75 µM | SK-MEL-2 21.6 µM | U-251 > 10 µM | OVCAR-4 14.2 µM
19.1 µM: HCT-15

CCC(C)CN1C(=O)NC(C)(Cc2ccccc2)C1=O (centres undefined)
inactive: ACHN > 100 µM | CAKI-1 > 100 µM | SNB-75 > 100 µM | NCI-H522 > 100 µM | HL-60 > 100 µM | HCC 2998 > 100 µM | OVCAR-5 > 100 µM | SW-620 > 100 µM | SR > 100 µM | SK-MEL-2 > 100 µM | U-251 > 100 µM | Malme-3M > 100 µM

O=C(CCCC(=O)Nc1ccc(Cl)cc1Cl)CC(=O)c1ccc2ccccc2c1
> 100 µM: HCT-15
inactive: ACHN > 100 µM | CAKI-1 > 100 µM | HL-60 > 100 µM | HCC 2998 > 100 µM | OVCAR-5 > 100 µM | SW-620 > 100 µM | HCT-116 > 100 µM | SK-MEL-2 > 100 µM | U-251 > 100 µM | Malme-3M > 100 µM | OVCAR-4 > 100 µM

Oc1ncnc2c1nnn2CCCn1nnc2c(O)ncnc21
inactive: ACHN > 100 µM | CAKI-1 > 100 µM | NCI-H522 > 100 µM | RPMI-8226 > 100 µM | HL-60 > 100 µM | HCC 2998 > 100 µM | OVCAR-5 > 100 µM | SW-620 > 100 µM | SR > 100 µM | HCT-116 > 100 µM | SK-MEL-2 > 100 µM | U-251 > 100 µM | OVCAR-4 > 100 µM
> 100 µM: HCT-15

CC1=NN(C(=O)c2ccc([N+](=O)[O-])cc2)C(=O)C1/N=N/c1ccccc1C(=O)O (centres undefined)
inactive: ACHN > 100 µM | CAKI-1 > 100 µM | SNB-75 51.2 µM | NCI-H522 79.4 µM | RPMI-8226 > 100 µM | HL-60 90.2 µM | HCC 2998 > 100 µM | OVCAR-5 > 100 µM | SW-620 > 100 µM | SR > 10 µM | HCT-116 > 100 µM | SK-MEL-2 > 100 µM | U-251 99.1 µM | Malme-3M > 100 µM

O=C(CCCCCCCCCCc1ccccc1)C1=C(O)CCCC1=O
inactive: ACHN 28.1 µM | CAKI-1 7.85 µM | SNB-75 32.6 µM | NCI-H522 27 µM | RPMI-8226 29 µM | HL-60 14.3 µM | HCC 2998 35.9 µM | OVCAR-5 33.3 µM | SW-620 37.8 µM | SR 23.8 µM | HCT-116 22.9 µM | SK-MEL-2 23 µM | U-251 29.2 µM | OVCAR-4 32.7 µM

CN1c2ccccc2NC(CC(=O)O)C2CC=CN21 (centres undefined)
> 100 µM: HCT-15
inactive: ACHN > 100 µM | CAKI-1 > 100 µM | SNB-75 > 100 µM | NCI-H522 > 100 µM | RPMI-8226 > 100 µM | HL-60 > 100 µM | OVCAR-5 > 100 µM | SW-620 > 100 µM | SK-MEL-2 > 100 µM | U-251 > 100 µM | Malme-3M > 100 µM | OVCAR-4 > 100 µM

Cc1cc(-c2ccccc2)nc(Nc2cc3ccccc3[nH]2)n1
> 100 µM: HCT-15
inactive: ACHN > 100 µM | CAKI-1 > 100 µM | NCI-H522 > 100 µM | RPMI-8226 > 100 µM | HL-60 > 100 µM | HCC 2998 > 100 µM | OVCAR-5 > 100 µM | SW-620 > 100 µM | SR > 100 µM | HCT-116 > 100 µM | SK-MEL-2 > 100 µM | U-251 > 100 µM | Malme-3M > 100 µM | OVCAR-4 > 100 µM

N=C(c1ccccc1)N(O)C1CCCCC1
inactive: CAKI-1 > 100 µM | SNB-75 81.3 µM | NCI-H522 > 100 µM | HL-60 > 100 µM | HCC 2998 > 100 µM | OVCAR-5 > 100 µM | SW-620 > 100 µM | SR > 100 µM | HCT-116 > 100 µM | SK-MEL-2 > 100 µM | U-251 > 100 µM | Malme-3M 9.38 µM | OVCAR-4 > 100 µM

O=C(CC1(O)C(=O)Nc2ccccc21)c1ccc(O)cc1 (centres undefined)
inactive: ACHN > 100 µM | CAKI-1 > 100 µM | SNB-75 69 µM | RPMI-8226 > 100 µM | HL-60 > 100 µM | HCC 2998 > 100 µM | OVCAR-5 > 100 µM | SW-620 > 100 µM | SR > 100 µM | HCT-116 > 100 µM | SK-MEL-2 > 100 µM | U-251 > 100 µM | Malme-3M > 100 µM | OVCAR-4 > 100 µM
> 100 µM: HCT-15

O=C(CC(=O)N1N=C(c2ccccc2)C(/N=N/c2ccc(C(=O)O)cc2)C1=O)Nc1ccc(F)cc1 (centres undefined)
18 µM: HCT-15
inactive: ACHN 23.6 µM | CAKI-1 7.55 µM | SNB-75 1.51 µM | NCI-H522 10.4 µM | RPMI-8226 27.5 µM | HL-60 22 µM | OVCAR-5 52.1 µM | SW-620 59.3 µM | HCT-116 12.2 µM | SK-MEL-2 17.9 µM | Malme-3M 60.7 µM | OVCAR-4 52 µM

O=[N+]([O-])c1nccn1COCCO
inactive: ACHN > 100 µM | CAKI-1 > 100 µM | SNB-75 > 100 µM | NCI-H522 > 100 µM | RPMI-8226 > 100 µM | HL-60 > 100 µM | HCC 2998 > 100 µM | OVCAR-5 > 100 µM | SW-620 > 100 µM | SR > 100 µM | HCT-116 > 100 µM | SK-MEL-2 > 100 µM | U-251 > 100 µM | Malme-3M > 100 µM | OVCAR-4 > 100 µM
> 100 µM: HCT-15

Cc1cccc(C(C)(C)C)c1NC(=O)CC1C(=O)Nc2ccccc2[S+]1[O-] (centres undefined)
49.2 µM: HCT-15
inactive: ACHN 31.4 µM | CAKI-1 39.3 µM | SNB-75 54.2 µM | NCI-H522 39.4 µM | RPMI-8226 34.3 µM | HL-60 20.9 µM | HCC 2998 68.1 µM | OVCAR-5 > 100 µM | SW-620 36.7 µM | SR 24.9 µM | HCT-116 40.6 µM | SK-MEL-2 49.3 µM | U-251 58.9 µM | Malme-3M 54 µM | OVCAR-4 18.5 µM

COc1ccc(Cc2cc3c(cc2OCC(=O)O)OCO3)cc1
inactive: ACHN > 100 µM | CAKI-1 > 100 µM | NCI-H522 > 100 µM | RPMI-8226 > 100 µM | HL-60 > 100 µM | HCC 2998 > 100 µM | OVCAR-5 > 100 µM | SW-620 > 100 µM | SR > 100 µM | HCT-116 > 100 µM | SK-MEL-2 > 100 µM | Malme-3M > 100 µM | OVCAR-4 > 100 µM

CCCCSC(=CC(=O)c1cccc(C(=O)C=C(SCCCC)SCCCC)n1)SCCCC
inactive: ACHN > 100 µM | CAKI-1 > 100 µM | SNB-75 88.9 µM | NCI-H522 > 100 µM | RPMI-8226 > 100 µM | HL-60 > 100 µM | HCC 2998 > 100 µM | OVCAR-5 > 100 µM | SW-620 > 100 µM | SR > 100 µM | HCT-116 > 100 µM | SK-MEL-2 > 100 µM | U-251 > 100 µM | Malme-3M > 100 µM | OVCAR-4 > 100 µM
> 100 µM: HCT-15

COC(=O)c1c(C(=O)OC)c(-c2ccccc2)n(-c2ccccc2)c(=O)c1-c1ccccc1
inactive: CAKI-1 51.2 µM | SNB-75 27.2 µM | NCI-H522 94.8 µM | RPMI-8226 > 100 µM | HL-60 > 100 µM | HCC 2998 > 100 µM | OVCAR-5 > 100 µM | SW-620 > 100 µM | SR > 100 µM | HCT-116 58.7 µM | U-251 42.9 µM | Malme-3M 61.2 µM | OVCAR-4 25.2 µM
> 100 µM: HCT-15
